These results are taken from patent US20210186905A1, “ENHANCING T-CELL FUNCTION AND TREATING A T-CELL DYSFUNCTIONAL DISORDER WITH A COMBINATION OF AN LSD INHIBITOR AND A PD-1 BINDING ANTAGONIST” (EpiAxis Therapeutic Pty Ltd, priority 2017, published 2021).

Counter-ions that a name gives are not always drawn.

Test [1] relates to MDA-MB-231 breast cancer cell line. The method, then:
(§1) A. MDA-MB-231 breast cancer cell line was treated with increasing doses of phenelzine sulfate (phenelzine). Immunofluorescence microscopy was performed on cells fixed and probed with primary anti-LSD1s111p and anti-H3k4me2 and DAPI. Representative images for each dataset are shown. Graph represents the TNFI values for LSD1p and H3k4me2 measured using ImageJ to select the nucleus minus background (n>20 individual cells). B. The effect of phenelzine sulfate on cell proliferation of MDA-MB-231 cells was analyzed using the WST-1 proliferation assay

The target in another test is LSD1 (Homo sapiens, UniProt O60341). To be noted: MDA-MB-231; TNFI of LSD1p and H3k4me2. The method, then:
as §1

The test system of a further test is LSD1p, CSV and ALDH1A. The test can be described thus: Immunofluorescence of FFPE tissue, metastatic lesions in lung or liver of 4T1 mice. It is filed as in vivo, mouse. The method, then:
FIG. 3 is a photographic and graphical representation showing that dual epigenetic-immunotherapy inhibits metastatic progression in 4T1 Mouse model. A. 4T1 Treatment FFPE from each treatment group (Group A=Control, Group C: PD1 (10 mg/kg), Group D: Phenelzine (40 mg/kg), Group F: PD1+Phenelzine) and for each target organ (Lung and Liver) was processed for 3D high resolution microscopy using the BondRX. FFPE tissues were fixed and Immunofluorescence microscopy was performed probing with rabbit LSD1(S111p); mouse anti CSV and goat anti […] and visualized with a donkey anti-rabbit AF 488, anti-mouse 568 and anti-goat 633. Cover slips were mounted on glass microscope slides with ProLong Diamond Antifade reagent (Life Technologies). Protein targets were localized by confocal laser scanning microscopy. Single 0.5 μm sections were obtained using a Leica DMI8 microscope using 100× oil immersion lens running LAX software. The final image was obtained by averaging four sequential images of the same section. Digital images were analyzed using ImageJ software (ImageJ, NIH, Bethesda, Md., USA) to determine the either the Total Nuclear Fluorescent Intensity (TNFI), the Total Cytoplasmic Fluorescent Intensity (TCFI) or total Fluorescent Intensity (TFI). N=40 cells were counted. B. Graphs for both organs are presented here. Graphs represent the TNFI values for LSD1, ALDH1A and TCFI for CSV measured using ImageJ to select the nucleus minus background. Representative images for the Lung dataset are shown.
The expression of a mesenchymal, stem-like biomarker panel was examined in metastatic sites in a 4T1 mouse model treated with vehicle control (Group A), anti-PD1 antibody (10 mg/kg) (Group C), phenelzine sulfate (40 mg/kg) (Group D) or a combination of both (Group F). The present inventors examined the presence of metastatic lesions in the lung or liver and measured the immunofluorescence (IF) of formalin-fixed paraffin-embedded (FFPE) tissue examining the IF intensity of LSD1p, CSV and ALDH1A.
4T1 Treatment FFPE from each treatment group primary tumor biopsies were processed in the BondRX for IFA staining using the instrument protocol: ER2 for 20 mins at 100° C. with Epitope Retrieval Solution 2 which is a pH-9 EDTA based retrieval solution followed by probing with rabbit anti LSD1 (S111p); mouse anti CSV and goat anti ALDH1A and visualized with a donkey anti-rabbit AF 488, anti-mouse 568 and anti-goat 633 or anti rat 633. Cover slips were mounted on glass microscope slides with ProLong Diamond Antifade reagent (Life Technologies). Protein targets were localized by confocal laser scanning microscopy. Single 0.5 μm sections were obtained using a Leica DMI8 microscope using 100× oil immersion lens running LAX software. The final image was obtained by averaging four sequential images of the same section. Digital images were analysed using ImageJ software (ImageJ, NIH, Bethesda, Md., USA) to determine the either the Total Nuclear Fluorescent Intensity (TNFI), the Total Cytoplasmic Fluorescent Intensity (TCFI) or total Fluorescent Intensity (TFI).

`NNCCc1ccccc1` (racemic) [phenelzine sulfate, (±)-2-phenylethylhydrazine]: the “proliferation of MDA-MB-231, as measured by the WST-1 assay” value in test [1] is “inhibiting the proliferation”. In addition, the “nuclear axis of LSD1, as measured by H3k4me2 de-methylation” value at LSD1 was “inhibited”. Further, in the test on LSD1p, CSV and ALDH1A (liver lesions), the ALDH1A expression result is on record as “strongly inhibited”, the CSV expression entry is recorded as “strongly inhibited” and the “LSD1p IF intensity” value is on record as “strongly inhibited”. Also, in the test with LSD1p, CSV and ALDH1A (lung lesions), the ALDH1A expression result was “strongly inhibited”, the CSV expression result is “strongly inhibited” and the “LSD1p IF intensity” value was “strongly inhibited”.
